Legend:
[1] = molecular target: Coagulation factor VII/tissue factor (Homo sapiens, UniProt P08709); test: Inhibition of tissue factor/factor 7a; type: protein-complex assay
[2] = Selectivity ratio of IC50 for tissue factor/factor 7a to IC50 for trypsin
[3] = molecular target: Coagulation factor X (Homo sapiens, UniProt P00742)
[4] = molecular target: Prothrombin (Homo sapiens, UniProt P00734); test: Inhibition of thrombin
[5] = molecular target: Plasminogen (Homo sapiens, UniProt P00747); test: Inhibition of plasmin
Sequence of Plasminogen (P00747 97-580 limits assumed): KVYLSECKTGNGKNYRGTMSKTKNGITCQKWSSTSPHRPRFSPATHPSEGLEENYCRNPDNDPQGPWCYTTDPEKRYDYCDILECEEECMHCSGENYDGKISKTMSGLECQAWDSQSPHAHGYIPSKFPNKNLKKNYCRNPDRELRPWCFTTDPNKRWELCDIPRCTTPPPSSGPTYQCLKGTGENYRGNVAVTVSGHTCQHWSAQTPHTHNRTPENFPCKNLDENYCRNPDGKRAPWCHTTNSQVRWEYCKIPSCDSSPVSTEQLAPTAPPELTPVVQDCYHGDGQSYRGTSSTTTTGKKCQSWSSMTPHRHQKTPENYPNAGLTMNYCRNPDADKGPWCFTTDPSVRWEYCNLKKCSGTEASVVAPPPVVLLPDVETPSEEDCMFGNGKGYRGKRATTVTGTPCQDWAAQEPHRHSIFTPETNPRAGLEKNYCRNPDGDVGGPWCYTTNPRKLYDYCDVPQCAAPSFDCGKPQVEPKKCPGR
Sequence of Plasminogen (P00747 581-810 limits assumed): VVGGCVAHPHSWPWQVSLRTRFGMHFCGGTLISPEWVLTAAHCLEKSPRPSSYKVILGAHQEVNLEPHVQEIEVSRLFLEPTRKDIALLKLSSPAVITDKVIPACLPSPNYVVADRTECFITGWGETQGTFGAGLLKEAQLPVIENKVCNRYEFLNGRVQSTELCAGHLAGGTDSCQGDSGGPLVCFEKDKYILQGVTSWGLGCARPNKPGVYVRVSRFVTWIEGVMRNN

Sequence of Coagulation factor VII/tissue factor (P08709 61-212 limits assumed): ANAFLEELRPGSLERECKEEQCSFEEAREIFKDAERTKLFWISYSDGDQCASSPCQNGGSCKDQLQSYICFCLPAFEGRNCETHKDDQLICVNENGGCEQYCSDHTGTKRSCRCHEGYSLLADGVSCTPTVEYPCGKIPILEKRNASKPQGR
Sequence of Coagulation factor VII/tissue factor (P08709 213-466 limits assumed): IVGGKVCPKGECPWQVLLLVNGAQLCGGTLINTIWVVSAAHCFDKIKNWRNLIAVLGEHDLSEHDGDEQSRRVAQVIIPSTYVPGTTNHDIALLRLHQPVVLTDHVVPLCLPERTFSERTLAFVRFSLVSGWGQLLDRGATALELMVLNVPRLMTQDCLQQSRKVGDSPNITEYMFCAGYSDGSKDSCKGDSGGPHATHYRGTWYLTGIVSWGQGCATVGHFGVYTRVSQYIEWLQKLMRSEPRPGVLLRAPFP
Sequence of Coagulation factor VII/tissue factor (P13726 33-295 partner limits assumed): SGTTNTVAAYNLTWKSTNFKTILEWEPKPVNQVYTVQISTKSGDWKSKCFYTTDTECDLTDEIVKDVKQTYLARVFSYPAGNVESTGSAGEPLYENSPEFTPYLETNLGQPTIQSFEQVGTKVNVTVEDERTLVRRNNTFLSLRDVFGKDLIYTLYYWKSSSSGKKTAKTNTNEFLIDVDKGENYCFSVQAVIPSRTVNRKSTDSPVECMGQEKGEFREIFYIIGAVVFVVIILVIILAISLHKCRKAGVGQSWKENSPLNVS
Sequence of Coagulation factor X (P00742 41-179 limits assumed): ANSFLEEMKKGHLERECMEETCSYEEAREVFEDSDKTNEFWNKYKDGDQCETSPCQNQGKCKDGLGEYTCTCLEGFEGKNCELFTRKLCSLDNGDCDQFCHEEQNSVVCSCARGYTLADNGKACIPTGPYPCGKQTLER
Sequence of Coagulation factor X (P00742 235-488 limits assumed): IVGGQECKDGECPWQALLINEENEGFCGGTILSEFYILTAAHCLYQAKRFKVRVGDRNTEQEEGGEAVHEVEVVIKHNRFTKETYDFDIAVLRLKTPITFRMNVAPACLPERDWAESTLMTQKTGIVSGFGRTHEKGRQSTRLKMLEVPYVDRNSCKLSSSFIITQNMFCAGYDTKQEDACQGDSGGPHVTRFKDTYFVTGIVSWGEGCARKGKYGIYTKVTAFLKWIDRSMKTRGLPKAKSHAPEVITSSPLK

Row | Compound | IC50 [1] [nM] | Ratio IC50 [2] | IC50 [3] [nM] | IC50 [4] [nM] | IC50 [5] [nM]
1 | CC(C)CNC(=O)c1ccc(-c2ccc(C#CC(C)(C)O)cc2C(=O)Nc2ccc(C(=N)N)cc2)c(C(=O)O)c1 | 926 | – | – | – | –
2 | CC(C)CNC(=O)c1ccc(-c2ccc(CN)cc2C(=O)Nc2ccc(C(=N)N)cc2)c(C(=O)O)c1 | 1220 | – | – | – | –
3 | CC(C)CNC(=O)c1ccc(-c2ccc(-c3cccn3C)cc2C(=O)Nc2ccc(C(=N)N)cc2)c(C(=O)O)c1 | 76 | 5.4 | 50 | 86900 | –
4 | CC(C)CNC(=O)c1ccc(-c2ccc(-c3cscc3CO)cc2C(=O)Nc2ccc(C(=N)N)cc2)c(C(=O)O)c1 | 9 | 56.7 | 130 | 63100 | 60
5 | C=Cc1ccc(-c2ccc(C(=O)NCC(C)C)cc2C(=O)O)c(C(=O)Nc2ccc(C(=N)N)cc2)c1 | 9 | 52.2 | 1650 | 9400 | –
6 | C=C(CCO)c1ccc(-c2ccc(C(=O)NCC(C)C)cc2C(=O)O)c(C(=O)Nc2ccc(C(=N)N)cc2)c1 | 29 | 75.5 | 11300 | 56200 | 358
7 | CC(C)CNC(=O)c1ccc(-c2ccc(Cc3ccccc3)cc2C(=O)Nc2ccc(C(=N)N)cc2)c(C(=O)O)c1 | 21 | 26.9 | 1750 | 8510 | 656
8 | CC(C)CNC(=O)c1ccc(-c2ccc(-c3cscc3CN=[N+]=[N-])cc2C(=O)Nc2ccc(C(=N)N)cc2)c(C(=O)O)c1 | 9 | 133 | 50 | 157000 | 242
9 | CC(C)CNC(=O)c1ccc(-c2ccc(-c3ccc[nH]3)cc2C(=O)Nc2ccc(C(=N)N)cc2)c(C(=O)O)c1 | 14 | 30.7 | 50 | 19900 | –
10 | CC(C)CNC(=O)c1ccc(-c2ccc(C#CCCO)cc2C(=O)Nc2ccc(C(=N)N)cc2)c(C(=O)O)c1 | 500 | 0.8 | 59000 | 17900 | –
11 | CC(C)CNC(=O)c1ccc(-c2ccc(-c3ccsc3)cc2C(=O)Nc2ccc(C(=N)N)cc2)c(C(=O)O)c1 | 10 | 37.7 | 40 | 15000 | 35
12 | CC(C)CNC(=O)c1ccc(-c2ccc(-c3occc3CO)cc2C(=O)Nc2ccc(C(=N)N)cc2)c(C(=O)O)c1 | 24 | 32.1 | 150 | 50000 | 1070
13 | CCCc1ccc(-c2ccc(C(=O)NCC(C)C)cc2C(=O)O)c(C(=O)Nc2ccc(C(=N)N)cc2)c1 | 92 | 450 | 46000 | 39600 | > 5000
14 | CC(C)CNC(=O)c1ccc(-c2ccc(-c3ccco3)cc2C(=O)Nc2ccc(C(=N)N)cc2)c(C(=O)O)c1 | 9 | 41.4 | 1300 | 14700 | 163
15 | CC(C)CNC(=O)c1ccc(-c2ccc(O)cc2C(=O)Nc2ccc(C(=N)N)cc2)c(C(=O)O)c1 | 67 | 5.7 | 50000 | 50000 | –
16 | C=CCc1ccc(-c2ccc(C(=O)NCC(C)C)cc2C(=O)O)c(C(=O)Nc2ccc(C(=N)N)cc2)c1 | 42 | 57.6 | 1900 | 19200 | 2470
17 | C/C=C\Cc1ccc(-c2ccc(C(=O)NCC(C)C)cc2C(=O)O)c(C(=O)Nc2ccc(C(=N)N)cc2)c1 | 11 | 119 | 7600 | 4880 | 684
18 | CC(C)CNC(=O)c1ccc(-c2ccc(C=CCO)cc2C(=O)Nc2ccc(C(=N)N)cc2)c(C(=O)O)c1 | 52 | 34 | 6620 | 22700 | –
19 | C=C(C)/C=C\c1ccc(-c2ccc(C(=O)NCC(C)C)cc2C(=O)O)c(C(=O)Nc2ccc(C(=N)N)cc2)c1 | 130 | – | 310 | – | –
20 | CC(C)CNC(=O)c1ccc(-c2ccc(-c3ccccc3)cc2C(=O)Nc2ccc(C(=N)N)cc2)c(C(=O)O)c1 | 98 | 4.3 | 350 | 11800 | –
21 | C#Cc1ccc(-c2ccc(C(=O)NCC(C)C)cc2C(=O)O)c(C(=O)Nc2ccc(C(=N)N)cc2)c1 | 25 | 115 | 8140 | 50200 | 1000
22 | CC(C)CNC(=O)c1ccc(-c2ccc(-c3ccc(CO)s3)cc2C(=O)Nc2ccc(C(=N)N)cc2)c(C(=O)O)c1 | 650 | – | – | – | –
23 | CC(C)CNC(=O)c1ccc(-c2ccc(-c3cccs3)cc2C(=O)Nc2ccc(C(=N)N)cc2)c(C(=O)O)c1 | 10 | 16 | 150 | 8020 | –

Row | Compound | IC50 [1] [nM] | Ratio IC50 [2] | IC50 [3] [nM] | IC50 [4] [nM] | IC50 [5] [nM]
24 | CC(C)CNC(=O)c1ccc(-c2ccc(CN=[N+]=[N-])cc2C(=O)Nc2ccc(C(=N)N)cc2)c(C(=O)O)c1 | 60 | – | – | – | –
25 | CC(C)CNC(=O)c1ccc(-c2ccc(C#CCO)cc2C(=O)Nc2ccc(C(=N)N)cc2)c(C(=O)O)c1 | 320 | – | – | – | –
26 | CC(C)CNC(=O)c1ccc(-c2ccc(-c3ccoc3)cc2C(=O)Nc2ccc(C(=N)N)cc2)c(C(=O)O)c1 | 11 | 42.6 | 120 | 16100 | 252
27 | CC(C)CNC(=O)c1ccc(-c2ccc(-c3ccsc3C(=O)O)cc2C(=O)Nc2ccc(C(=N)N)cc2)c(C(=O)O)c1 | 190 | – | – | – | –
28 | CC(C)CNC(=O)c1ccc(-c2ccc(-c3sccc3CO)cc2C(=O)Nc2ccc(C(=N)N)cc2)c(C(=O)O)c1 | 330 | 13.3 | 640 | 50000 | –
29 | CC(C)CNC(=O)c1ccc(-c2ccc(Cc3cccs3)cc2C(=O)Nc2ccc(C(=N)N)cc2)c(C(=O)O)c1 | 11 | 127 | 8150 | 42100 | 913
30 | C=C(CO)c1ccc(-c2ccc(C(=O)NCC(C)C)cc2C(=O)O)c(C(=O)Nc2ccc(C(=N)N)cc2)c1 | 12 | 295 | 7100 | 39700 | 810
31 | CC(C)CNC(=O)c1ccc(-c2ccc(C(O)CO)cc2C(=O)Nc2ccc(C(=N)N)cc2)c(C(=O)O)c1 (stereo unspecified) | 1610 | – | – | – | –
32 | CC(C)=CCc1ccc(-c2ccc(C(=O)NCC(C)C)cc2C(=O)O)c(C(=O)Nc2ccc(C(=N)N)cc2)c1 | 45 | 21.1 | 27000 | 13000 | 308
33 | CC(C)CNC(=O)c1ccc(-c2ccccc2C(=O)Nc2ccc(C(=N)N)cc2)c(C(=O)O)c1 | 120 | 1.5 | 103000 | 64000 | –
34 | CC(C)CNC(=O)c1ccc(-c2ccc(-c3nccs3)cc2C(=O)Nc2ccc(C(=N)N)cc2)c(C(=O)O)c1 | 104 | 14.1 | 230 | 70400 | 494
35 | CC(C)CNC(=O)c1ccc(-c2ccc(-c3ccncc3)cc2C(=O)Nc2ccc(C(=N)N)cc2)c(C(=O)O)c1 | 231 | 5.3 | 19400 | 35400 | –
36 | CC(C)CNC(=O)c1ccc(-c2ccc(-c3cccnc3)cc2C(=O)Nc2ccc(C(=N)N)cc2)c(C(=O)O)c1 | 546 | 5.5 | 36500 | 50000 | –
37 | C=C(C)c1ccc(-c2ccc(C(=O)NCC(C)C)cc2C(=O)O)c(C(=O)Nc2ccc(C(=N)N)cc2)c1 | 13 | 40.8 | 1170 | 17900 | 70
38 | CC(C)CNC(=O)c1ccc(-c2ccc(-c3cocc3CO)cc2C(=O)Nc2ccc(C(=N)N)cc2)c(C(=O)O)c1 | 20 | 114 | 230 | > 50000 | 554
39 | C=C=Cc1ccc(-c2ccc(C(=O)NCC(C)C)cc2C(=O)O)c(C(=O)Nc2ccc(C(=N)N)cc2)c1 | 9 | 59.8 | 1500 | 28000 | –
40 | CC(C)CNC(=O)c1ccc(-c2ccc(-c3ccoc3CO)cc2C(=O)Nc2ccc(C(=N)N)cc2)c(C(=O)O)c1 | 8 | 92.5 | 20 | > 50000 | 457
41 | CC(C)CNC(=O)c1ccc(-c2ccc(-c3cscc3CN)cc2C(=O)Nc2ccc(C(=N)N)cc2)c(C(=O)O)c1 | 33 | 54.2 | 10 | 110000 | 229
42 | CCc1ccc(-c2ccc(C(=O)NCC(C)C)cc2C(=O)O)c(C(=O)Nc2ccc(C(=N)N)cc2)c1 | 97 | 61.8 | 50000 | 12300 | > 5000
43 | COc1ccc(-c2ccc(C(=O)NCC(C)C)cc2C(=O)O)c(C(=O)Nc2ccc(C(=N)N)cc2)c1 | 30 | 25.3 | 6630 | 14900 | 14400
44 | CC(C)CNC(=O)c1ccc(-c2ccc(-c3ccsc3CO)cc2C(=O)Nc2ccc(C(=N)N)cc2)c(C(=O)O)c1 | 36 | 84.4 | 450 | 50000 | 408
45 | CC#Cc1ccc(-c2ccc(C(=O)NCC(C)C)cc2C(=O)O)c(C(=O)Nc2ccc(C(=N)N)cc2)c1 | 34 | 48.8 | 5220 | 50000 | 127

Source: ChEMBL document CHEMBL1137759, “Design, parallel synthesis, and crystal structures of biphenyl antithrombotics as selective inhibitors of tissue factor FVIIa complex. Part 1: Exploration of S2 pocket pharmacophores” (Bioorg Med Chem, 2009)
